Experimental data from PubChem BioAssay (NCI).
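These data come from cells grown in 96-well plates and exposed to compound for 48 hours at five concentrations. Abbreviation: GI50, concentration required for 50% inhibition of growth. TGI: total growth inhibition.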

Assays:
Test in all cases: DTP human tumour cell line panel, 48 h
A549 NSCLC = system: A549 NSCLC
HT29 colon = system: HT29 colon
LOX IMVI melanoma = system: LOX IMVI melanoma
OVCAR-8 ovarian = system: OVCAR-8 ovarian
RXF 393 renal = system: RXF 393 renal
SF-539 CNS = system: SF-539 CNS
T-47D breast = system: T-47D breast
TK-10 renal = system: TK-10 renal

Compound	GI50 (A549 NSCLC)	TGI (A549 NSCLC)	GI50 (HT29 colon)	TGI (HT29 colon)	GI50 (LOX IMVI melanoma)	TGI (LOX IMVI melanoma)	GI50 (OVCAR-8 ovarian)	TGI (OVCAR-8 ovarian)	GI50 (RXF 393 renal)	TGI (RXF 393 renal)	GI50 (SF-539 CNS)	TGI (SF-539 CNS)	GI50 (T-47D breast)	TGI (T-47D breast)	GI50 (TK-10 renal)	TGI (TK-10 renal)
FC(F)(F)c1ccc(-c2cnc(-n3cc(COCCN4CCCCC4)nn3)nc2NC2CCCCCC2)cc1	4.16 µM	8.18 µM	1.46 µM	5.08 µM	3.89 µM	7.88 µM	4.12 µM	8.74 µM	2.51 µM	5.67 µM	3.89 µM	7.42 µM	4.12 µM	9.21 µM	4.14 µM	7.81 µM
Cc1cc(Nc2nc(-c3cccnc3)nc3ccccc23)n[nH]1	0.672 µM	> 100 µM	1.57 µM	11.8 µM	0.712 µM	3.57 µM	9.55 µM	> 100 µM	0.388 µM	2.52 µM	1.82 µM	7.99 µM	2.02 µM	> 75.4 µM	0.607 µM	99.1 µM
Brc1ccc2[nH]cc(-c3nc(-c4c[nH]c5ncccc45)cs3)c2c1	3.2 µM	16.3 µM			2.46 µM	11 µM	4.07 µM	> 100 µM	1.64 µM	8.56 µM	5.37 µM	23.9 µM	4.97 µM	20.3 µM	5.28 µM	17.8 µM
CCC(c1ccc(OC)cc1)C(CC)c1ccc(O)c(CN2CCN(C)CC2)c1 (stereo not drawn)	8.26 µM	22.8 µM	2.01 µM	9.06 µM	2.48 µM	7.64 µM	6.35 µM	21.8 µM	2.83 µM	12.2 µM	2.66 µM	7.98 µM	2.57 µM	8.35 µM	4.48 µM	15.6 µM
COc1ccc(C(c2ccc(OCCN(C)C)cc2)c2cc3ccccc3c3ccccc23)cc1 (stereo not drawn)	1.66 µM	3.06 µM	1.6 µM	3.1 µM	1.64 µM	3.06 µM	1.7 µM	3.17 µM	1.44 µM	2.82 µM	1.7 µM	3.13 µM	1.47 µM	3.12 µM	1.64 µM	3.1 µM
COc1cccc(-c2nn(-c3ccccc3)cc2-c2ccnc(NCCNC(=O)Nc3cccc(C(F)(F)F)c3)c2)c1	3.38 µM	11.5 µM	1.68 µM	3.47 µM	1.64 µM	2.99 µM	3.3 µM	9.77 µM	1.53 µM	3.03 µM	1.75 µM	3.32 µM	2.23 µM	6.01 µM	2.74 µM	11.9 µM
CC(=O)N1N=C(c2ccc(Nc3ccnc4cc(Cl)ccc34)cc2)CC1c1ccc(Cl)cc1 (stereo not drawn)	8.81 µM	> 100 µM	5.4 µM	> 100 µM	3.15 µM	> 100 µM	> 100 µM	> 100 µM	5.07 µM	> 100 µM	> 100 µM	> 100 µM	1.57 µM	> 100 µM	> 100 µM	> 100 µM
Cc1ccc(-c2c3c(nn2-c2ccc(S(N)(=O)=O)cc2)-c2ccccc2C3)cc1	23.4 µM	70.1 µM	24.2 µM	95.8 µM	18.2 µM	40.5 µM	36.4 µM	> 100 µM	17 µM	43.7 µM	18.3 µM	33.3 µM	71.3 µM	> 100 µM	19.2 µM	38.1 µM
COc1ccc2c(C3(c4cn(C)c5cc(OC)ccc45)C(=O)Nc4ccc(Cl)cc43)cn(C)c2c1			3.22 µM	24 µM	3.4 µM	21.9 µM	3.09 µM	> 100 µM	2.5 µM	7.87 µM	9.19 µM	> 100 µM	3.89 µM	> 100 µM		
COc1cc(-c2cc(-c3ccc(Nc4ccnc5cc(Cl)ccc45)cc3)nc(N3CCOCC3)n2)cc(OC)c1OC	1.76 µM	3.47 µM	1.97 µM	4.61 µM			2.12 µM	4.7 µM	1.8 µM	4.44 µM	1.94 µM	3.67 µM	2.06 µM	4.65 µM	1.82 µM	3.3 µM
COc1cccc(/C=N/NC(=S)NC2CC3CCC2C3)c1O (stereo not drawn)	4 µM	15.9 µM	30.1 µM	91.4 µM	5.09 µM	18 µM	5.2 µM	18.5 µM	13 µM	28.1 µM	10.8 µM	29.3 µM	3.13 µM	11.8 µM	16.4 µM	31.5 µM
